Reference: patent publication US11286268B1, “EIF4E-inhibiting compounds and methods” (EFFECTOR THERAPEUTICS, INC., priority 2019, dated 2022)
Like-named read-outs stand apart in the source and are kept apart here.

Molecular target: recombinant eIF4E (Homo sapiens (Human), UniProt P06730)
Assay: Fluorescence polarization competition assay for eIF4E binding potency
Procedure: Compounds were screened for eIF4E binding potency using a fluorescence polarization competition assay. All binding reactions were performed in fluorescence polarization buffer (FPB) containing 20 mM Tris pH 7.5, 100 mM NaCl, 1 mM DTT, and 0.02% Tween-20. Final binding reactions contained 75 nM recombinant eIF4E (Beryllium, custom order), 20 nM EDA-m^7GDP-ATTO-550 (Jena Bioscience, NU-827-550) and varying concentrations of the inhibitory compound of interest. Final DMSO concentration in each reaction was 1%.
eIF4E protein was pre-incubated with EDA-m^7GDP-ATTO-550 in FPB at 2× concentrations for 5 minutes prior to the addition of compounds. Compounds (100×) were prepared using 3-fold serial dilutions in 100% DMSO, and subsequently diluted 1:50 in FPB to produce 2× stocks. 50 μl of 2× eIF4E/EDA-m^7GDP-ATTO-550 were transferred to the wells of a 96-well half-area black flat bottom polystyrene plate. 50 μl of 2× test compound were added, and binding reactions were allowed to equilibrate for 30 minutes at room temperature while protected from light. The fluorescent polarization signal was detected using a Victor 2 multi-label counter (Perkin Elmer) and the concentration necessary to achieve inhibition of eIF4E/EDA-m^7GDP-ATTO-550 binding by 50% (IC50) was calculated using data from an 8-point compound dilution series.
In Table 4A, IC50 values of less than 0.05 μM are labelled as “+++”, from 1 to 0.05 μM are labelled as “++”, and greater than 1 μM are labelled as “+”. ND=not determined.

[1] = inhibition of eIF4E/EDA-m7GDP-ATTO-550 binding, calculated IC50 values, Table 4B, read-out: IC50
[2] = fluorescence polarization competition, 75 nM recombinant eIF4E, 20 nM EDA-m7GDP-ATTO-550, IC50 class, read-out: elF4E FP
[3] = inhibition of eIF4E/EDA-m7GDP-ATTO-550 binding by 50%, Table 4B calculated values, read-out: IC50

Sequence of recombinant eIF4E (P06730 whole entry): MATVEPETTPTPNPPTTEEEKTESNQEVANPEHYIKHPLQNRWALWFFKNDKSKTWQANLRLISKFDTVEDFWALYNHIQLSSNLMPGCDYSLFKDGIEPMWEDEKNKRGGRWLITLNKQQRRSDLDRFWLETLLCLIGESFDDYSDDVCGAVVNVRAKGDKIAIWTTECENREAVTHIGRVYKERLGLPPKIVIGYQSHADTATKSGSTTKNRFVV

SMILES | IC50 [1] | IC50 [2] | IC50 [3]
Cc1nc2cnc(N(C)C3CCN(C4CC(F)(F)C4)CC3)c(C#N)c2c(=O)n1CC#Cc1ccc(Cl)cc1-c1ccnc2c(C(=O)NS(=O)(=O)C(F)(F)F)csc12 [compound 1818] | 13 nM | – | –
Cc1nc2cnc(N3CCN(C(C)C(F)F)CC3)c(C#N)c2c(=O)n1CC#Cc1ccc(Cl)cc1-c1ccnc2c(C(=O)O)csc12 (centres unmarked) [compound 1466] | 17.9 nM | – | –
Cc1nc2c(N3CCN(CCF)C4CC43)ncc(C#N)c2c(=O)n1CCOc1ccc(Cl)cc1-c1ccnc2c(C(=O)O)csc12 (centres unmarked) [compound 817] | – | < 50 nM | –
COc1cc(S(=O)(=O)NC(=O)c2csc3c(-c4cc(Cl)ccc4C#CCn4c(C)nc5cnc(N(C)C6CCN(CC(C)(F)F)CC6)c(C#N)c5c4=O)ccnc23)ccn1 [compound 1683] | 18.3 nM | – | –
Cc1nc2cc(C(F)(F)F)c(CN3CCOCC3)c(C#N)c2c(=O)n1CC#Cc1ccc(Cl)cc1-c1ccnc2c(C(=O)O)csc12 [compound 617] | – | < 50 nM | 39.7 nM
CCCc1cc(-c2cc(Cl)ccc2OCCn2c(C)nc3cnc(C4CC4)c(C#N)c3c2=O)c2scc(C(=O)O)c2n1 [compound 1076] | – | < 50 nM | 24.5 nM
Cc1cc(-c2cc(Cl)ccc2OCCn2c(C)nc3c(C(F)F)ncc(C#N)c3c2=O)c2scc(C(=O)O)c2n1 [compound 372] | – | < 50 nM | 7.34 nM
Cc1cc(C)nc(-c2c(C(F)(F)F)cc3nc(C)n(CCOc4ccc(Cl)cc4-c4cc(C)nc5c(C(=O)O)csc45)c(=O)c3c2C#N)n1 [compound 965] | – | 50 to 1000 nM | 118 nM
Cc1cc(-c2cc(Cl)ccc2OCCn2c(C)nc3cc(C(F)(F)F)c(-c4ncc(F)cn4)c(C#N)c3c2=O)c2scc(C(=O)O)c2n1 [compound 966] | – | < 50 nM | 3.58 nM
Cc1cc(F)cc(-c2c(C(F)(F)F)cc3nc(C)n(CCOc4ccc(Cl)cc4-c4cc(C)nc5c(C(=O)O)csc45)c(=O)c3c2C#N)n1 [compound 684] | – | < 50 nM | 15 nM
CCc1cc(-c2cc(Cl)ccc2OCCn2c(C)nc3cnc(N4CCN(C)CC4)c(C#N)c3c2=O)c2scc(C(=O)O)c2n1 [compound 1086] | – | < 50 nM | 38.4 nM
Cc1nc2cnc(N(C)C3CCN(CC(F)(F)F)CC3)c(C#N)c2c(=O)n1CC#Cc1ccc(Cl)cc1-c1ccnc2c(C(=O)NS(=O)(=O)C3CC(F)(F)C3)csc12 [compound 1677] | 12.9 nM | – | –
Cc1csc2c(-c3cc(Cl)ccc3OCCn3c(C)nc4cc(C(F)(F)F)c(N5CCN(C)CC5)c(C#N)c4c3=O)ccnc12 [compound 1249] | 75.9 nM | 50 to 1000 nM | –
Cc1c(C(F)(F)F)cc2nc(C)n(CCOc3ccc(Cl)cc3-c3cn(C)c(=O)c4c(C(=O)O)csc34)c(=O)c2c1C#N [compound 753] | – | < 50 nM | 13.8 nM
O=C(O)c1cccc(-c2cc(Cl)ccc2OCCn2cnc3cc(F)c(F)cc3c2=O)c1 [compound 77] | – | > 1000 nM | 1440 nM
Cc1nc2cncc(OCCN(C)C)c2c(=O)n1CCOc1ccc(Cl)cc1-c1ccnc2c(C(=O)O)csc12 [compound 841] | – | 50 to 1000 nM | > 1000 nM
Cc1cnc(C)c(-c2c(C(F)(F)F)cc3nc(C)n(CCOc4ccc(Cl)cc4-c4cc(C)nc5c(C(=O)O)csc45)c(=O)c3c2C#N)c1 [compound 902] | – | < 50 nM | 14.2 nM
Cc1nc2cnc(N(C)[C@@H]3[C@@H]4CN(CC(F)F)C[C@@H]43)c(C#N)c2c(=O)n1CC#Cc1ccc(Cl)cc1-c1ccnc2c(C(=O)O)csc12 [compound 1407] | 24.7 nM | – | –
CCc1cc(-c2cc(Cl)ccc2OCCn2c(C)nc3cnc(N4CCNC5CC54)c(C#N)c3c2=O)c2scc(C(=O)O)c2n1 (centres unmarked) [compound 1220] | 13.1 nM | < 50 nM | –
Cc1nc2cc(CN(C)C)c(C(F)(F)F)c(C#N)c2c(=O)n1CC#Cc1ccc(Cl)cc1-c1ccnc2c(C(=O)O)csc12 [compound 623] | – | < 50 nM | 4.77 nM
Cc1nc2cnc(N(C)C3CCN(CC(C)(F)F)CC3)c(C#N)c2c(=O)n1CC#Cc1ccc(Cl)cc1-c1ccnc2c(C(=O)NS(=O)(=O)c3ccccn3)csc12 [compound 1146] | – | < 50 nM | 14.4 nM
Cc1cc(-c2cc(Cl)ccc2OCCn2c(C)nc3cc(C(F)(F)F)c(C4CCOCC4)c(C#N)c3c2=O)c2scc(C(=O)O)c2n1 [compound 431] | – | 50 to 1000 nM | 226 nM
CC#Cc1c(C(=O)O)cccc1-c1cc(Cl)ccc1OCCn1cnc2cnc(C#N)cc2c1=O [compound 24] | – | 50 to 1000 nM | 184 nM
CCN(c1ncc2nc(C)n(CC#Cc3ccc(Cl)cc3-c3ccnc4c(C(=O)NS(=O)(=O)C5CCC5)csc34)c(=O)c2c1C#N)C1CCN(C2COC2)CC1 [compound 1748] | 17.5 nM | – | –

SMILES | IC50 [1] | IC50 [2] | IC50 [3]
Cc1cc(-c2cc(Cl)c(F)cc2OCCn2c(C)nc3cc(C(F)(F)F)cc(C#N)c3c2=O)c2scc(C(=O)O)c2n1 [compound 571] | – | 50 to 1000 nM | 54.8 nM
Cc1nc2cc(C(F)(F)F)c(N3CCN(C)CC3)c(C#N)c2c(=O)n1CCOc1ccc(Cl)cc1-c1ccccc1 [compound 833] | – | 50 to 1000 nM | 111 nM
CN1c2cc(C(F)(F)F)cc(C#N)c2C(=O)N(CCOc2ccc(Cl)cc2-c2ccnc3c(C(=O)O)csc23)C1(C)C [compound 355] | – | 50 to 1000 nM | 146 nM
Cc1cc(-c2cc(Cl)ccc2OCCn2c(C)nc3cc(C(F)(F)F)c(-c4cnc(C)c(C)n4)c(C#N)c3c2=O)c2scc(C(=O)O)c2n1 [compound 969] | – | < 50 nM | 5.56 nM
Cc1cc(-c2cc(Cl)ccc2OCCn2c(C)nc3cnc(-c4cc(F)cnc4C)c(C#N)c3c2=O)c2scc(C(=O)O)c2n1 [compound 1051] | – | < 50 nM | 5.02 nM
CCc1cc(-c2cc(Cl)ccc2OCCn2c(C)nc3cc(C(F)(F)F)c(CN4CCN(C)CC4)c(C#N)c3c2=O)c2scc(C(=O)O)c2n1 [compound 637] | – | < 50 nM | 16.6 nM
N#Cc1cc2c(=O)n(CCOc3ccc(Cl)cc3-c3cccc(-c4nn[nH]n4)c3)cnc2cn1 [compound 128] | – | 50 to 1000 nM | 970 nM
Cc1nc2c(OC(F)F)ccc(C#N)c2c(=O)n1CCOc1ccc(Cl)cc1-c1ccnc2c(C(=O)O)csc12 [compound 359] | – | < 50 nM | 48.9 nM
Cc1c(CC#Cc2ccc(Cl)cc2-c2ccnc3c(C(=O)O)csc23)c(=O)c2c(C#N)c(Cl)c(C(F)(F)F)cc2n1C [compound 669] | – | < 50 nM | 36.4 nM
COc1ccc2nc(C)n(CCOc3ccc(Cl)cc3-c3ccnc4c(C(=O)O)csc34)c(=O)c2c1C#N [compound 404] | – | < 50 nM | 10.1 nM
Cc1nc2cnc(N3CCC34CN(CC(F)F)C4)c(C#N)c2c(=O)n1CC#Cc1ccc(Cl)cc1-c1ccnc2c(C(=O)O)csc12 [compound 1499] | 27.5 nM | – | –
Cc1nc2cnc(N(C)C3CCN(CC(F)(F)F)CC3)c(C#N)c2c(=O)n1CC#Cc1ccc(Cl)cc1-c1ccnc2c(C(=O)NS(=O)(=O)CCC#N)csc12 [compound 1671] | 4.14 nM | – | –
N#Cc1cc2c(=O)n(CCOc3ccc(Cl)cc3-c3csc(C(=O)O)c3)cnc2cn1 [compound 80] | – | 50 to 1000 nM | 110 nM
Cc1cc(-c2cc(Cl)ccc2OCCn2c(C)nc3cc(C(F)(F)F)c(-c4ccnc(C)c4C)c(C#N)c3c2=O)c2scc(C(=O)O)c2n1 [compound 686] | – | < 50 nM | 26.5 nM
COc1cc(-c2cc(Cl)ccc2OCCn2c(C)nc3cc(C(F)(F)F)c(CN4CCN(C)CC4)c(C#N)c3c2=O)c2scc(C(=O)O)c2n1 [compound 638] | – | < 50 nM | 4.46 nM
COC(=O)c1csc2c(-c3cc(Cl)ccc3OCCn3c(C)nc4cnc(N(C)C5CCN(CC(F)(F)F)CC5)c(C#N)c4c3=O)ccnc12 [compound 1620] | 17.9 nM | – | –
Cc1cc(-c2cc(Cl)ccc2OCCn2c(C)nc3cc(C(F)(F)F)c(Cc4cccnc4)c(Cl)c3c2=O)c2scc(C(=O)O)c2n1 [compound 399] | – | 50 to 1000 nM | 69.9 nM
Cc1nc2cnc(N(C)C3CCN(CC(F)(F)C4CC(F)(F)C4)CC3)c(C#N)c2c(=O)n1CC#Cc1ccc(Cl)cc1-c1ccnc2c(C(=O)O)csc12 [compound 1582] | 19.2 nM | – | –
Cc1cc(-c2cc(Cl)ccc2OCCn2c(C)nc3cc(Cl)c(N4CCN(C)CC4)c(C#N)c3c2=O)c2sc(C)c(C(=O)O)c2n1 [compound 741] | – | < 50 nM | 15.2 nM
Cc1nc2ccc(CCN(C)C)c(C#N)c2c(=O)n1CCOc1ccc(Cl)cc1-c1ccc(C(F)F)c2c(C(=O)O)csc12 [compound 577] | – | < 50 nM | 39.4 nM
N#Cc1cc(C(=O)O)cc(-c2cc(Cl)ccc2OCCn2cnc3cnc(C#N)cc3c2=O)c1 [compound 93] | – | > 1000 nM | 1400 nM
Cc1cc(-c2cc(Cl)ccc2OCCn2c(C)nc3cc(C(F)(F)F)c(N4CCCC4)c(C#N)c3c2=O)c2scc(C(=O)O)c2n1 [compound 422] | – | < 50 nM | 11.5 nM
Cc1nc2c(N3CCN(C)CC3(C)C)ncc(C#N)c2c(=O)n1CCOc1ccc(Cl)cc1-c1ccnc2c(C(=O)O)csc12 [compound 816] | – | < 50 nM | 6.87 nM
